Starred links: 1 amine or outer side, 2 acyl side, 3 side chain; linkers in the order of their positions; H or OH if unused. Positions of bridges follow the written chain, without caps; N, C: chain ends. Non-standard residues stand in square brackets, D forms with d. Residues, ends and D or L forms follow the SMILES beside them. Chains are numbered I, II in the order given. Actinocin(9to1) = Cc1c2oc3c(C)ccc(C(=O)[*:1])c3nc-2c(C(=O)[*:2])c(N)c1=O; NMeV = CN[C@H](C(=O)O)C(C)C; Nle = CCCC[C@H](N)C(=O)O; Sar = CNCC(=O)O
Tested on: HeLa (human cancer) cells
Assay: Cytological dose-response profiling by automated fluorescence microscopy (KS statistic z-scores, 93 descriptors)
Type: cell-based
Conditions: HeLa cells, 20 hrs, thirteen 3-fold dilutions; Y = profile response above signal threshold
Method: The known drug set was chosen to cover common mechanisms of toxicity or therapeutic action in cancer and other diseases, and to include several groups with a common target (macromolecule or pathway) but unrelated structures. We analyzed thirteen 3-fold dilutions of each drug, covering a final concentration range on cells from micromolar to picomolar. (Table 3 and Materials & Methods). HeLa (human cancer) cells were cultured in 384-well plates to near confluence, treated with drugs for 20 hrs, fixed, and stained with fluorescent probes for various cell components and processes. We chose 11 distinct probes that covered a range of cell biology, multiplexing a DNA stain and two antibodies per well (the probe sets are: (SC35, anillin), (α-tubulin, actin), (phospho-p38, phospho-ERK), (p53, cFos), (phospho-CREB, calmodulin)). Using automated fluorescence microscopy, we collected images of up to ˜8000 cells from each well. 26 wells on each plate were treated only with DMSO to generate a control population. The experiment was performed twice in parallel to provide a replicate dataset. Image segmentation procedures were used to automatically identify nuclei and nuclear organelles, and cytoplasmic regions were approximated as an annulus surrounding each identified nucleus (FIG. 31A). For each cell, region, and probe, a set of descriptors was measured. These included measures of size, shape, and intensity, as well as ratios of intensities between regions (93 descriptors total, Table S3).
For profiling studies, it is useful to reduce each population of descriptor values to a single number. […] We devised a measure based on the Kolmogorov-Smirnov (KS) statistic, allowing nonparametric comparison of experimental and control distributions from the same plate (FIGS. 31B and 35). […] In particular, the relationship between z-score and the original physical measure may be non-linear.
Cell culture. 20 hours before compound addition, Hela cells grown in […] dishes were trypsinized, resuspended in DMEM supplemented with 10% FCS and 10 ug/mL penicillin/streptomycin, and plated in 384-well plates at an initial density of 3,000 cells per well, 40 uL per well. Compounds were purchased from Sigma (St. Louis, MO), Calbiochem (EMD Biosciences, San Diego, Calif.) and Tocris (Elliksville, MO) and are listed in Table 2. Compound stocks were prepared in DMSO and then arrayed on 384-well plates in 16 consecutive 1:3 serial dilutions in DMSO as outlined in Table 3. The highest and two lowest dilutions (rows A, 0 and P) were not used for subsequent analysis as the wells due to persistent edge effects, leaving us with a series of 13 dilutions. Each stock was diluted 16-fold in warmed culture medium, and 8 μl of this solution was added to the plated cells, resulting in a 96-fold final dilution. All conditions were performed in duplicate in separate plates. Cells were incubated at 37° C. for 20 hours, then fixed in 3% formaldehyde in PBS. All liquid handling was performed using a programmed TekBench (TekCel, Hopkinton, Mass.).
Markers. Five sets of markers were stained by standard immunofluorescence methods in this study.

| Compound | Used in clustering (FIG. 33) |
| --- | --- |
| CC[C@]1(O)C[C@@H]2CN(CCc3c([nH]c4ccccc34)[C@@](C(=O)OC)(c3cc4c(cc3OC)N(C)[C@H]3[C@@](O)(C(=O)OC)[C@H](OC(C)=O)[C@]5(CC)C=CCN6CC[C@]43[C@@H]65)C2)C1 [Compound 57, Vinblastine] | Y |
| CN(C)CCCN1c2ccccc2Sc2ccc(Cl)cc21 [Compound 62, Chloropromazine] | Y |
| O=C1Nc2ccccc2/C1=C1/Nc2ccccc2/C1=N\O [Compound 32, Indirubin monoxime] | Y |
| C=C1[C@@H](C)[C@H]2[C@H](Cc3ccccc3)NC(=O)[C@]23[C@H](OC(C)=O)/C=C/[C@@](C)(O)C(=O)[C@@H](C)C/C=C/[C@H]3[C@@H]1O [Compound 16, Cytochalasin D] | Y |
| COc1ccc(C[C@H]2NC[C@H](O)[C@H]2OC(C)=O)cc1 [Compound 7, Anisomycin] | Y |
| Amanitin [Compound 3] | Y |
| NS(=O)(=O)c1ccc(-n2nc(C(F)(F)F)cc2-c2ccc(Cl)cc2)cc1 [Compound 79, SC236] | Y |
| C[C@@H]1C[C@H]2[C@@H]3CCC4=CC(=O)C=C[C@]4(C)[C@@]3(F)[C@@H](O)C[C@]2(C)[C@@]1(O)C(=O)CO [Compound 19, Dexamethasone] | Y |
| COc1cc2c(c(OC)c1OC)-c1ccc(OC)c(=O)cc1[C@@H](NC(C)=O)CC2 [Compound 13, Colchicine] | Y |
| Oxamflatin [Compound 78] | Y |
| Cc1cc(O)c2c(c1)C(=O)c1cc(O)cc(O)c1C2=O [Compound 22, Emodin] | Y |
| CN1CCN(C2=Nc3cc(Cl)ccc3Nc3ccccc32)CC1 [Compound 64, Clozapine] | Y |
| COc1cc([C@@H]2c3cc4c(cc3[C@H](O)[C@H]3COC(=O)[C@H]23)OCO4)cc(OC)c1OC [Compound 44, Podophyllotoxin] | Y |
| CC(=O)O[C@H]1C(=O)[C@@]2(C)[C@H]([C@H](OC(=O)c3ccccc3)[C@]3(O)C[C@H](OC(=O)[C@H](O)[C@@H](NC(=O)c4ccccc4)c4ccccc4)C(C)=C1C3(C)C)[C@]1(OC(C)=O)CO[C@@H]1C[C@@H]2O [Compound 53, Taxol] | Y |
| C/C1=C/C(=O)O[C@@H]2C[C@@H](CC[C@H](C)/C=C\CC1)O[C@@](O)([C@@H]1CSC(=O)N1)C2 [Compound 36, Latrunculin B] | Y |
| CC(/C=C/C(=O)NO)=C\[C@@H](C)C(=O)c1ccc(N(C)C)cc1 [Compound 54, Trichostatin] | Y |
| CCOC(=O)C1=C(C)NC(=S)NC1c1cccc(O)c1 (centres unmarked) [Compound 39, Monastrol] | Y |
| CCCCCCCCCCCCCC(=O)O[C@@H]1[C@@H](C)[C@@]2(O)[C@@H](C=C(CO)C[C@]3(O)C(=O)C(C)=C[C@@H]23)[C@@H]2C(C)(C)[C@]12OC(C)=O [Compound 43, PMA] | Y |
| CC[C@H](C)C(=O)O[C@H]1CCC=C2C=C[C@H](C)[C@H](CC[C@@H]3C[C@@H](O)CC(=O)O3)[C@H]21 [Compound 37, Mevastatin] | Y |
| COC(=O)Nc1nc2ccc(C(=O)c3cccs3)cc2[nH]1 [Compound 91, Nocodazole] | Y |
| CCC(=O)CCCCC[C@@H]1NC(=O)[C@H]2CCCCN2C(=O)[C@H]([C@@H](C)CC)NC(=O)[C@H](Cc2cn(OC)c3ccccc23)NC1=O [Compound 76, Apicidin] | Y |

| Compound | Used in clustering (FIG. 33) |
| --- | --- |
| C[C@@H]1C[C@@H]([C@H](O)CC2CC(=O)NC(=O)C2)C(=O)[C@@H](C)C1 [Compound 14, Cycloheximide] | Y |
| C[S+]([O-])c1ccc(-c2nc(-c3ccncc3)c(-c3ccc(F)cc3)[nH]2)cc1 (centres unmarked) [Compound 80, SB203580] | Y |
| CCCC[C@@H](C=O)NC(=O)[C@H](CC(C)C)NC(=O)[C@H](CC(C)C)NC(C)=O [Compound 5, N-acetyl-Leu-Leu-norleucinal] (Ac-Leu-Leu-[Nle]-aldehyde) | Y |
| COc1cccc(-c2cc(=O)c3ccccc3o2)c1N [Compound 63, PD98059] | Y |
| COc1cccc2c1C(=O)c1c(O)c3c(c(O)c1C2=O)C[C@@](O)(C(=O)CO)C[C@@H]3O[C@H]1C[C@H](N)[C@H](O)[C@H](C)O1 [Compound 20, Doxorubicin] | Y |
| Tunicamycin [Compound 55] | Y |
| CNc1ccc2oc(C[C@H]3O[C@@]4(CC[C@H]3C)O[C@H]([C@H](C)C(=O)c3ccc[nH]3)[C@H](C)C[C@H]4C)nc2c1C(=O)O [Compound 2, A23187 free acid] | Y |
| CC[C@H]1/C=C/C=C/C[C@@H](C)[C@H](O)[C@@](C)(O)C(=O)[C@@H](C)[C@H](O)[C@@H](C)C(=O)[C@@H](C)[C@H](O)[C@@H](C)/C=C/C(=O)O[C@@H]2[C@H](C)[C@H](CC1)O[C@]1(CC[C@H](C)[C@H](C[C@@H](C)O)O1)[C@H]2C [Compound 90, Oligomycin] | Y |
| CCC(C)(C)C(=O)O[C@H]1C[C@@H](C)C=C2C=C[C@H](C)[C@H](CC[C@@H]3C[C@@H](O)CC(=O)O3)[C@H]21 [Compound 70, Simavastatin] | Y |
| O=C1Cc2c([nH]c3ccc([N+](=O)[O-])cc23)-c2ccccc2N1 [Compound 6, Alsterpaullone] | Y |
| C=C1[C@@H](O)[C@@H]2O[C@]3(CC[C@H](/C=C/[C@@H](C)[C@@H]4CC(C)=C[C@@]5(O[C@H](C[C@@](C)(O)C(=O)O)CC[C@H]5O)O4)O3)CC[C@H]2O[C@@H]1[C@@H](O)C[C@H](C)[C@H]1O[C@@]2(CCCCO2)CC[C@H]1C [Compound 41, Okadaic acid] | Y |
| C/C(=C\c1csc(C)n1)[C@@H]1C[C@@H]2O[C@]2(C)CCC[C@H](C)[C@H](O)[C@@H](C)C(=O)C(C)(C)[C@@H](O)CC(=O)O1 [Compound 77, Epothilone B] | Y |
| COc1ccc(C[C@H](N)C(=O)N[C@H]2[C@@H](O)[C@H](n3cnc4c(N(C)C)ncnc43)O[C@@H]2CO)cc1 [Compound 45, Puromycin] | Y |
| CC1=C(/C=C/C(C)=C/C=C/C(C)=C/C(=O)O)C(C)(C)CCC1 [Compound 48, Retinoic acid (trans)] | Y |
| Cc1c2oc3c(C)ccc(C(=O)N[C@@H]4C(=O)N[C@H](C(C)C)C(=O)N5CCC[C@H]5C(=O)N(C)CC(=O)N(C)[C@@H](C(C)C)C(=O)O[C@@H]4C)c3nc-2c(C(=O)N[C@@H]2C(=O)N[C@H](C(C)C)C(=O)N3CCC[C@H]3C(=O)N(C)CC(=O)N(C)[C@@H](C(C)C)C(=O)O[C@@H]2C)c(N)c1=O [Compound 4, Actinomycin D] (I: T[dV]P[Sar][NMeV] / II: T[dV]P[Sar][NMeV]; ester I:1-I:C, II:1-II:C; linker I:N-II:N via Actinocin(9to1)) | Y |
| C/C1=C\[C@H](C)C[C@H](C)OC(=O)C[C@H](c2ccc(O)cc2)NC(=O)[C@@H](Cc2c(Br)[nH]c3ccccc23)N(C)C(=O)[C@H](C)NC(=O)[C@@H](C)C1 [Compound 34, Jasplakinolide] | Y |
| C[C@H]1CCC/C=C/[C@@H]2C[C@H](O)C[C@H]2[C@H](O)/C=C/C(=O)O1 [Compound 8, Brefeldin A] | Y |
| C[C@@]1(CO)[C@H](O)CC[C@@]2(C)[C@H]1CC[C@H]1C[C@@H]3C[C@@]12CC[C@]3(O)CO [Compound 81, Aphidicolin] | Y |
| CN(Cc1cnc2nc(N)nc(N)c2n1)c1ccc(C(=O)N[C@@H](CCC(=O)O)C(=O)O)cc1 [Compound 83, Methotrexate] | Y |
| CN[C@@H]1C[C@H]2O[C@@](C)([C@@H]1OC)n1c3ccccc3c3c4c(c5c6ccccc6n2c5c31)C(=O)NC4 [Compound 51, Staurosporine] | Y |
